Results from ChEMBL document CHEMBL4011585, “Identification of dibenzyl imidazolidine and triazole acetamide derivatives through virtual screening targeting amyloid beta aggregation and neurotoxicity in PC12 cells” (Eur J Med Chem, 2017).
Activity calls are given as the source filed them. No cut-off for these calls is given here.

Legend:
[1] = molecular target: Amyloid-beta precursor protein (Homo sapiens) (UniProt P05067); assay: Inhibition of recombinant human amyloid beta (1 to 42) aggregation at 100 uM measured every 10 mins for 48 hrs by thioflavin T fluorescence assay
[2] = molecular target: Amyloid-beta precursor protein (Homo sapiens) (UniProt P05067); assay: Induction of morphological changes in recombinant human amyloid beta (1 to 42) assessed as less dense fibril at 100 uM measured after 48 hrs by transmission electron microscopic method
[3] = molecular target: Amyloid-beta precursor protein (Homo sapiens) (UniProt P05067); assay: Induction of morphological changes in recombinant human amyloid beta (1 to 42) assessed as appearance of punctate at 100 uM measured after 48 hrs by transmission electron microscopic method
[4] = molecular target: Amyloid-beta precursor protein (Homo sapiens) (UniProt P05067); assay: Induction of morphological changes in recombinant human amyloid beta (1 to 42) assessed as appearance of small mesh-like aggregates at 100 uM measured after 48 hrs by transmission electron microscopic method
[5] = molecular target: Amyloid-beta precursor protein (Homo sapiens) (UniProt P05067); assay: Induction of morphological changes in recombinant human amyloid beta (1 to 42) fibrils assessed as thinner fibril at 100 uM measured after 48 hrs by transmission electron microscopic method
[6] = molecular target: Amyloid-beta precursor protein (Homo sapiens) (UniProt P05067); assay: Induction of morphological changes in recombinant human amyloid beta (1 to 42) assessed as appearance of uneven fibrils at 100 uM measured after 48 hrs by transmission electron microscopic method
PC-12 [7] = assay: Cytotoxicity against rat PC12 cells assessed as reduction in cell viability at 100 uM after 48 hrs by MTT assay relative to control; format: cell-based; details: pc-12, 48 h
PC-12 [8] = assay: Neuroprotective activity against amyloid beta (1 to 42)-induced cell death in rat PC12 cells assessed as cell viability at 100 uM measured after 48 hrs by MTS assay relative to control; format: functional
PC-12 [9] = assay: Cytotoxicity against rat PC12 cells assessed as reduction in cell viability after 48 hrs by MTT assay; format: cell-based; details: pc-12, 48 h
PC-12 [10] = assay: Cytotoxicity against rat PC12 cells assessed as reduction in cell viability at 10 uM after 48 hrs by MTT assay relative to control; format: cell-based; details: pc-12, 48 h
[11] = molecular target: Amyloid-beta precursor protein (Homo sapiens) (UniProt P05067); assay: Induction of morphological changes in recombinant human amyloid beta (1 to 42) assessed as smoother fibrils at 100 uM measured after 48 hrs by transmission electron microscopic method
[12] = molecular target: Amyloid-beta precursor protein (Homo sapiens) (UniProt P05067); assay: Induction of morphological changes in recombinant human amyloid beta (1 to 42) assessed as loosely attached fibrils at 100 uM measured after 48 hrs by transmission electron microscopic method
[13] = molecular target: Amyloid-beta precursor protein (Homo sapiens) (UniProt P05067); assay: Induction of morphological changes in recombinant human amyloid beta (1 to 42) fibrils assessed as shorter fibril at 100 uM measured after 48 hrs by transmission electron microscopic method
PC-12 [14] = assay: Cytotoxicity against rat PC12 cells assessed as reduction in cell viability up to 100 uM after 48 hrs by MTT assay; format: cell-based; details: pc-12, 48 h

Amyloid-beta precursor protein (Homo sapiens), sequence (P05067 whole entry): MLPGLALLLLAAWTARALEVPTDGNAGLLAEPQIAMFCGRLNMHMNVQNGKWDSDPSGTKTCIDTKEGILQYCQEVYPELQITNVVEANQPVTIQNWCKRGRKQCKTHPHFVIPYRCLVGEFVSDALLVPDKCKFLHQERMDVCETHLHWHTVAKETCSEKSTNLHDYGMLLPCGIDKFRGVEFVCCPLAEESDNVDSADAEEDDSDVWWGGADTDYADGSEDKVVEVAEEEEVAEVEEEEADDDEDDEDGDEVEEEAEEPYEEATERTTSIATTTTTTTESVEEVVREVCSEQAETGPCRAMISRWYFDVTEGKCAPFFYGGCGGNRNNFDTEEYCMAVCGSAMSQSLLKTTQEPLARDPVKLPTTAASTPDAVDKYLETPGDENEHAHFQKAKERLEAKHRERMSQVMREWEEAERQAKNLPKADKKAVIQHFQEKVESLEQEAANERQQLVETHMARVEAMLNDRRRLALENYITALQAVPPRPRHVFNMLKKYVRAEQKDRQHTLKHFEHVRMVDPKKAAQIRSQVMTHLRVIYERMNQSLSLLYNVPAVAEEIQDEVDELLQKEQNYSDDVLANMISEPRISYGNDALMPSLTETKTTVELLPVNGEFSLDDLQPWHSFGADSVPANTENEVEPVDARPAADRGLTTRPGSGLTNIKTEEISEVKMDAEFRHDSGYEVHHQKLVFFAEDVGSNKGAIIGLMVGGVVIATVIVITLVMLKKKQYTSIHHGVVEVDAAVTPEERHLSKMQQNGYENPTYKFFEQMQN

Cc1ccc(NC(=O)CSc2nnc(-c3ccc(N)cc3)n2C)cc1
inhibition [1]: Active
Activity [2]: Active
Activity [3]: Active
Activity [4]: Active
Activity [5]: Active
Activity [6]: Active
Activity (PC-12 [7]): 60%

Cn1c(SCC(=O)Nc2ccccc2)nnc1-c1ccc(N)cc1
inhibition [1]: Active
Activity [2]: Active
Activity [3]: Active
Activity [4]: Active
Activity [5]: Active
Activity [6]: Active
viability at 100 µM (PC-12 [8]; PC-12, 48 h, read-out: Activity): 73 to 78%
Activity (PC-12 [7]): 20 to 25%

Cc1cccc(CNC(=O)[C@@H](C)C2CCN(C(=O)c3ccc4oc(-c5ccccc5)nc4c3)CC2)c1
inhibition [1]: inactive
Activity (PC-12 [9]): Dose-dependent effect
Activity [2]: inactive
Activity (PC-12 [10]): 35%
Activity (PC-12 [7]): 87%

c1ccc(COc2cccc(C3N(Cc4ccccc4)CCN3Cc3ccccc3)c2)cc1
inhibition [1]: inactive
Activity [2]: Active
Activity [11]: Active
Activity [12]: Active
Activity [5]: Active
Activity [13]: Active
Activity (PC-12 [14]): Non-Toxic
Activity (PC-12 [8]): Active

COc1cc(C2N(Cc3ccccc3)CCN2Cc2ccccc2)ccc1OCc1ccccc1
inhibition [1]: Active
Activity [2]: Active
Activity [12]: Active
Activity [5]: Active
Activity [6]: Active
Activity [13]: Active
Activity (PC-12 [14]): Non-Toxic
Activity (PC-12 [8]): Active
